Assay results from article PMC5537355, “Structures and transport dynamics of a Campylobacter jejuni multidrug efflux pump” (Nature Communications, 2017).

Columns and labels:
CmeB = molecular target: T1, CmeB (Campylobacter jejuni, UniProt Q8RTE4); test: isothermal titration calorimetry; assay type: binding; conditions: 20 mM Na-HEPES pH 7.5, 0.03% DDM, room temperature; 20 μM monomer in cell; no cyclooctatetraene
T1 construct: full-length, N-terminal 6xHis (pET15b), E. coli BL21(DE3)deltaacrB host; homotrimer

[1] = molecular target: Campylobacter jejuni CmeB multidrug efflux pump (Campylobacter jejuni) (UniProt Q8RTE4); test: crystal structure

`C[C@H](CCC(=O)NCCS(=O)(=O)O)[C@H]1CC[C@H]2[C@@H]3CC[C@@H]4C[C@H](O)CC[C@]4(C)[C@H]3C[C@H](O)[C@]12C` [taurodeoxycholate] was tested, and the KD (CmeB) was “examine the binding of taurodeoxycholate to the purified CmeB transporter”.

In the case of “Campylobacter jejuni CmeB multidrug efflux pump (from UniProt Q8RTE4) (natural protein)”, the stoichiometry N [1] is reported as 3.
